Experimental findings from the Deep4Chem optical property database are described below.

Each structure is given as a SMILES string.

This series can be described thus: solvent given as SMILES.

For the setting “in ClC(Cl)Cl”, `Clc1cc(Cl)c([C](c2c(Cl)cc(Cl)cc2Cl)c2c(Cl)cc(-n3c4ccccc4c4ccccc43)cc2Cl)c(Cl)c1` had an absorption maximum of 598 nm. Turning to `COc1cc(/C=C2/SC(=O)NC2=O)cc(OC)c1O`, the absorption maximum runs as follows: (in C1CCCCC1) 354 nm; (in C1COCCO1) 367 nm; (in CC#N) 362 nm; (in CN(C)C=O) 341 nm; (in CO) 359 nm; (in O) 358 nm. In addition, the absorption maximum is, setting by setting: (in OCC(O)CO) 364 nm; (in OCCO) 370 nm. With `CC1=[N+]2C(=C(c3c4ccccc4c(C)c4ccccc34)c3ccc(C)n3[B-]2(F)F)C=C1`, the absorption maximum runs as follows: (in CC#N) 514 nm; (in CCCCCC) 515 nm; (in CCO) 515 nm; (in CN(C)C=O) 517 nm; (in Cc1ccccc1) 519 nm; (in ClCCl) 517 nm.

On to `c1ccc(CSc2c3ccc(=[N+]4CCCCC4)cc-3oc3cc(N4CCCCC4)ccc23)cc1`, for which the absorption maximum (in ClCCl) stood at 598 nm. `CC1=CC(/C=C/c2ccc(OCCCN=[N+]=[N-])cc2)=[N+]2C1=C(c1ccc(N(C)C)cc1)c1c(C)cc(C)n1[B-]2(F)F`: the absorption maximum (in CO) was found to be 568 nm. Consider `CN(C)c1ccc(-c2nc(C#N)c(C#N)n2C)cc1`, for which the absorption maximum reads like this: (in C1CCCCC1) 323 nm; (in CC#N) 313 nm; (in CO) 309 nm; (in ClC(Cl)Cl) 326 nm. On to `O=c1c2ccccc2nc2ccc(-c3ccc(-c4ccc(N(c5ccccc5)c5ccccc5)cc4)cc3)cn12`, for which the absorption maximum (in ClCCl) was determined as 362 nm. `Cc1ccc(-n2c(-c3ccccc3[NH-])[nH+]c3c4ccccc4c4ccccc4c32)cc1` came in with an absorption maximum (in Cc1ccccc1) of 363 nm. The compound `CC1=CC(C)=[N+]2C1=C(c1ccc(I)cc1)c1c(C)cc(C)n1[B-]21Oc2ccc3ccccc3c2-c2c(ccc3ccccc23)O1` yielded an absorption maximum (in ClC(Cl)Cl) of 506 nm. Turning to `CCCCCCCCC1(CCCCCCCC)c2cc3c(cc2-c2sc(-c4ccc(/C=C5\SC(=S)N(CC)C5=O)c5nsnc45)cc21)C(CCCCCCCC)(CCCCCCCC)c1cc(-c2ccc(/C=C4\SC(=S)N(CC)C4=O)c4nsnc24)sc1-3`, the absorption maximum (in ClC(Cl)Cl) came out at 652 nm. Compound `O=[N+]([O-])c1ccc2c(ccc3[n+]2[B-](F)(F)n2c-3cc3c4ccccc4c4ccccc4c32)c1` came in with an absorption maximum (in ClCCl) of 530 nm.

As to `Cc1ccc(C2=Nc3cccc4[n+]3[B-](c3ccccc3)(N2)NC(c2ccc(C)cc2)=N4)cc1`, the absorption maximum (in ClCCl) is 435 nm. On the same count and under the same terms, next, `COc1cccc2cc(C)c3c4ccccc4n(C)c3c12`: 370 nm. Turning to `COc1cc2sc3cc(OC)c(F)cc3c(=O)c2cc1F`, the absorption maximum (in CS(C)=O) is 316 nm.

Regarding `CN(C)c1ncc2nc(C#N)n(Cc3ccccc3)c2n1`, the absorption maximum was determined as 355 nm (in C1COCCO1), 357 nm (in CC#N), 358 nm (in CO) and 361 nm (in ClCCl).

With `CC1CC=C(c2ccc(-c3cccs3)s2)CC1` (stereo not drawn), the absorption maximum is given as 341 nm (in C1CCOC1); 341 nm (in CC#N); 341 nm (in CCCCCC); 336 nm (in CCO); 341 nm (in OCCOCCO); 343 nm (in c1ccncc1). As for `CN1/C(=C/C=C(/C=C/c2sc3ccccc3[n+]2C)c2ccc(C(F)(F)F)cc2)Sc2ccccc21`, the absorption maximum is given as 646 nm (in CCO), 643 nm (in CO), 652 nm (in CS(C)=O) and 639 nm (in O). Turning to `Cc1cscc1-c1cc2c3cc(-c4cscc4C)c4nc(C(F)(F)C(F)(F)C(F)(F)F)nc5c(-c6cscc6C)cc(c6cc(-c7cscc7C)c7nc(C(F)(F)C(F)(F)C(F)(F)F)nc1c7c26)c3c45`, the absorption maximum (in C1CCOC1) amounted to 493 nm. For the setting “in CC#N”, `c1ccc2c(c1)ccc1oc3ccc4cc5oc6ccc7ccc8oc9ccc%10ccccc%10c9c8c7c6c5cc4c3c12` had an absorption maximum of 352 nm. For the compound `c1ccc2c(c1)ccc1ccc3ccc4ccc5ccccc5c4c3c12`, under “in ClCCl”, the absorption maximum was determined as 435 nm. `CCCCC1(c2ccccc2)Nc2c(-c3ccc(N(c4ccccc4)c4ccccc4)cc3)ccc(-c3ccc(N(c4ccccc4)c4ccccc4)cc3)c2N=C1c1ccccc1` (stereo not drawn) registered an absorption maximum (in ClC(Cl)Cl) of 370 nm. `CCCn1c2cccc3c2[c+]2c4c1cccc4n(CCC)c1cccc(c12)n3CCC` came in with an absorption maximum (in CC#N) of 521 nm.

Take `FC(F)(F)c1cc2n(n1)[B-]1(c3ccccc3Oc3ccccc31)[n+]1ccc3ccccc3c1-2`: the absorption maximum is, setting by setting: (in C1CCCCC1) 375 nm; (in Cc1ccccc1) 378 nm; (in ClCCl) 372 nm.

Regarding `CCOC(=O)CCCCCn1c2ccc(C)cc2c(=O)c2cc3c(cc21)c(=O)c1cc(C)ccc1n3CCCCCC(=O)OCC`, the absorption maximum (in CO) is reported as 540 nm. Consider `CCCCN1c2ccccc2Sc2cc(/C=C/C3=Nc4ccc5ccccc5c4C3(C)C)ccc21`, for which the absorption maximum is, setting by setting: (in C1CCCCC1) 414 nm; (in C1COCCO1) 417 nm; (in CCOC(C)=O) 416 nm; (in CCOCC) 414 nm; (in Cc1ccccc1) 423 nm.

As for `CCC(C)(C)c1ccc2c(c1)C(CCOC)(CCOC)c1cc(-c3ccc4c(c3)C(CCOC)(CCOC)c3cc(C(C)(C)CC)ccc3-4)ccc1-2`, the absorption maximum (in C1CCCCC1) is recorded as 331 nm. Take `C(/C=C/c1cc2c3c(c1)CCCN3CCC2)=C\c1ccncc1`: the absorption maximum (in C1COCCO1) came to 413 nm, the absorption maximum (in CC#N) was determined as 413 nm, the absorption maximum (in CCCCCCC) was 403 nm and the absorption maximum (in CO) is 419 nm. On to `COc1ccc(-n2nc(C#N)c(N3CCC(N4CCCCC4)CC3)n2)cc1`, for which the absorption maximum (in CC#N) amounted to 325 nm.

Regarding `C(=C\c1c[nH]cn1)/c1cc[n+]2ccc(/C=C/c3c[nH]cn3)cc2c1`, the absorption maximum (in CO) was found to be 430 nm. Compound `c1ccc(-c2cc3ccccc3p2-c2ccccc2)cc1` (stereo not drawn) had an absorption maximum (in C1CCOC1) of 321 nm. `COc1ccc(C2=CC(c3ccccc3)=[N+]3C2=Nc2c(-c4ccc(OC)cc4)cc(-c4ccccc4)n2[B-]3(F)F)cc1`: the absorption maximum by setting is: (in Cc1ccccc1) 663 nm; (in ClC(Cl)Cl) 664 nm. With `COc1ccc2c(c1)CCC1=C(c3ccccc3)C3=C(c4ccc5cccc(O)c5n4)c4c(-c5ccccc5)c5c(n4[B-](F)(F)[N+]3=C12)-c1ccc(OC)cc1CC5`, the absorption maximum (in O) was found to be 660 nm. `N#Cc1c(N2CCCCC2)cc(-c2ccccc2)c2c1-c1ccccc1C2` returned an absorption maximum (in C1CCOC1) of 360 nm.

On to `CCCC1(CCC)c2cc(-c3ccccc3)ccc2-c2ccc(-c3ccc4c(c3)C(CCC)(CCC)c3cc(-c5ccccc5)ccc3-4)cc21`, for which the absorption maximum (in C1CCCCC1) came to 346 nm. On to `CC(C)(C)c1ccc(-c2c(-c3ccc(N(c4ccccc4)c4ccccc4)cc3)cc(-c3ccc(N(c4ccccc4)c4ccccc4)cc3)c(-c3ccc(C(C)(C)C)cc3)c2-c2ccc(C(C)(C)C)cc2)cc1`, for which the absorption maximum (in C1CCOC1) was determined as 316 nm. For the compound `Cc1ccc(/C2=c3\cc/c(o3)=C(\c3ccc(C)cc3)c3ccc([nH]3)-c3ccc4n3[B-](F)(F)[N+]3=C(C=CC3=C4c3ccco3)c3ccc2[nH]3)cc1`, the absorption maximum (in ClC(Cl)Cl) amounted to 722 nm.

In the case of `CCOC(=O)C1=CN(Cc2ccccc2)C=C(C(=O)OCC)C1`, the absorption maximum (in C1CCOC1) is 367 nm and the absorption maximum (in CO) amounted to 371 nm. As for `O=C1c2ccccc2-c2c(-c3cc(Cl)ccc3O)[nH]c(=O)n21`, the absorption maximum was 390 nm (in CC#N), 393 nm (in CO) and 395 nm (in ClCCl). Take `CC(C)[Si](C#Cc1c2ccccc2c(C#C[Si](C(C)C)(C(C)C)C(C)C)c2nc3ccccc3nc12)(C(C)C)C(C)C`: the absorption maximum is given as 570 nm (in CCCCCC) and 570 nm (in ClCCl). For the setting “in ClCCl”, `C(=C\c1cc(/C=C/c2ccccc2)nc(/C=C/c2ccccc2)n1)/c1ccccc1` returned an absorption maximum of 312 nm. Where the note is “in C1CCOC1”, `CCCCCOc1cc2oc(=O)c3c4ccc(N(c5ccc(C)cc5)c5ccc(C)cc5)cc4c4ccc5cccc6c(c1)c2c3c4c56` had an absorption maximum of 487 nm. `CC(C)(C)c1ccc2c(c1)c1cc(C(C)(C)C)cc3c1n2B1c2c-3cccc2-c2cc(C(C)(C)C)cc3c4cc(C(C)(C)C)ccc4n1c23` yielded an absorption maximum (in C1CCOC1) of 387 nm. `Cc1cc(C)c(B(c2ccc(C#Cc3cc4ccc5cc(C#Cc6ccc(B(c7c(C)cc(C)cc7C)c7c(C)cc(C)cc7C)cc6)cc6ccc(c3)c4c56)cc2)c2c(C)cc(C)cc2C)c(C)c1`: the absorption maximum (in Cc1ccccc1) is recorded as 414 nm. `c1ccc2c(c1)ncc1ccc3cnc4ccccc4c3c12` had an absorption maximum (in CC#N) of 397 nm. With `COc1ccc(C2=Cc3ccc4ccccc4[n+]3[B-](F)(F)O2)cc1`, the absorption maximum (in ClC(Cl)Cl) is recorded as 439 nm.

`C(#Cc1cc(C#Cc2cccs2)c(C#Cc2cccs2)c(C#Cc2cccs2)c1C#Cc1cccs1)c1cccs1` came in with an absorption maximum (in ClCCl) of 372 nm.

In turn, `CC(=O)OC[C@H]1O[C@@H]([C@@H]2C=CC(=S)NC2=O)[C@H](OC(C)=O)[C@@H]1OC(C)=O` displayed an absorption maximum (in ClC(Cl)(Cl)Cl) of 420 nm. For the compound `CCCCn1c2ccc(/C=C(\C#N)c3ccc([N+](=O)[O-])cc3)cc2c2cc(Cn3c(-c4ccc5c(c4)c4ccccc4n5CCCC)nc4ccccc43)ccc21`, the absorption maximum (in C1CCOC1) was 410 nm; the absorption maximum (in CC#N) is reported as 416 nm; the absorption maximum (in CCO) is listed as 416 nm; the absorption maximum (in CCOC(C)=O) is recorded as 408 nm; the absorption maximum (in CN(C)C=O) came out at 423 nm; the absorption maximum (in ClCCl) is 417 nm. Besides, the absorption maximum is on record as 434 nm (in O) and 409 nm (in c1ccccc1). Where the note is “in ClCCl”, `FC(F)(F)c1ccc(C#Cc2cc(C#Cc3ccc(C(F)(F)F)cc3)c3ccc4c(C#Cc5ccc(C(F)(F)F)cc5)cc(C#Cc5ccc(C(F)(F)F)cc5)c5ccc2c3c54)cc1` registered an absorption maximum of 467 nm.

With `COc1ccc2cc(/C=C/c3ccccc3)c(=O)oc2c1`, the absorption maximum (in CC#N) stood at 366 nm. Take `CC1(C)CC[N+]2=c3c(cc4c(c31)Oc1cc3c(cc1C=4c1ccccc1C(=O)O)C(c1ccccc1C(=O)O)=c1cc4c5c(c1O3)C(C)(C)CC[N+]=5CCC4)CCC2`: the absorption maximum (in ClC(Cl)Cl) was found to be 611 nm.
